“Also recorded” adds a separate entry of the source. Blank lines part the entries; values can stand above or below the molecule they belong to. Where a SMILES comes first, the peptide text is derived from it. The star is where a group is joined. Cbz = O=C(OCc1ccccc1)*
Columns and labels:
[1] = biological target: mTOR (Homo sapiens, UniProt P42345); conditions: Bajer et al. 2014; cited from earlier work
[2] = tested on: SK-N-Be2 cells; assay: Cell viability assay (CellTiterGlo) in SK-N-Be2 cells; type: cell-based, human; conditions: for IC20: determined empirically
[3] = Metabolic stability in mouse liver microsomes; type: in vitro ADME; conditions: 2 h incubation, positive control
Procedure: Mouse liver microsomes (Xenotech) were diluted to 0.5 mg/mL in a solution containing 100 mM PBS buffer at 7.4 pH, an NADPH regenerating system (Promega), and test compounds at 20 μM. The mixture was incubated at 37° C. under gentle rotation for the indicated time points. The reaction was quenched by aliquoting 15 μL of solution into 60 μL ice-cold acetonitrile containing an internal standard. Test compounds were quantified by LC-MS using a system comprised of a Thermo Scientific Dionex Ultimate 3000 and a Bruker amaZon SL equipped with an electrospray ionization source controlled by a Bruker Hystar 3.2. Compounds were separated by injecting 20 μL of sample onto an Agilent Eclipse Plus C18 column (2.1×50 mm, […]) maintained at 20° C., with the flow rate set at 400 μL/min. Initial flow conditions were 60% solvent A (MilliQ H2O, 0.1% acetic acid), and 40% solvent B (HPLC-grade MeOH, 0.1% acetic acid). Solvent B was raised to 60% over 0.25 min and to 70% by 6.75 min. Solvent B was raised to 95% by 7 min and lowered back to 40% by 8 minutes; total run time was 9 min.

[4] = tested on: Histone H3 phosphorylation; assay: Histone H3 phosphorylation western blot; type: cell-based; conditions: 1 μM
Text: Membranes were blocked using Odyssey Blocking Buffer (LI-COR) for 1 hr at room temperature. […] Primary antibodies used in these studies include: MycN (CST; 1:500 dilution), Actin (SCBT; 1:2000 dil.), cMYC (CST; 1:500 dil.), pAKT (S473; CST; 1:500 dil.), AKT (CST; 1:2000), pP70 (T389; CST; 1:1000) P70 (CST; 1:1000).
We also compared the potency of these drugs against a recently developed AurKA inhibitor that acts by disrupting protein confirmation rather than simply blocking the protein:protein interaction site as alisertib does.

[5] = biological target: T1, CK2a1 (Homo sapiens, UniProt P68400); assay: Cell-free biochemical CK2a1 kinase assay
T1 construct: purchased Reaction Biology Corporation (Malvern, Pa.)
Procedure: Cell-free biochemical kinase assays were performed at Reaction Biology Corporation (Malvern, Pa.). In brief, kinase substrates were diluted into reaction buffer containing 20 mM Hepes (pH 7.5), 10 mM MgCl2, 1 mM EGTA, 0.02% Brij35, 0.02 mg/ml BSA, 0.1 mM Na3VO4, 2 mM DTT, 1% DMSO. Purified protein (CK2a1, CK2a2, or mTOR) was added to the substrate solution and gently mixed. Test compounds were diluted from 10 mM DMSO stock solutions into the reaction buffer using an Echo550 acoustic dispenser, followed by incubation at RT for 20 min. 33P-ATP (10 μCi/μL) was added to reaction mixture, following incubation for 2 h at RT. Reactions were then spotted onto P81 ion exchange paper and kinase activity was detected by filter binding method.

[6] = tested on: SK-N-Be2 cells; type: in vitro ADME, human
Procedure: In brief, SK-N-Be2 cells were seeded at 400 k cells/well in 6 w plates and incubated overnight. The following day, compounds were added to wells at indicated concentrations, with DMSO-only control added to non-treated wells. Following treatment for the indicated time periods, cells were trypsinized, rinsed twice with cold PBS to remove media, pelleted by centrifugation, and frozen at −20° C. To extract compounds, frozen pellets were resuspended in 150 μL of acetonitrile, sonicated for 2′, and centrifuged at 1400×g for 75′ at 4° C. Supernatant was collected and analyzed by LC-MS using a system comprised of a Thermo Scientific Dionex Ultimate 3000 and a Bruker amaZon SL equipped with an electrospray ionization source controlled by a Bruker Hystar 3.2. Compounds were separated by injecting 20 μL of supernatant onto an Agilent Eclipse Plus C18 column (2.1×50 mm, […]) maintained at 20° C., with the flow rate set at 400 μL/min. Initial flow conditions were 60% solvent A (MilliQ H2O, 0.1% acetic acid), and 40% solvent B (HPLC-grade MeOH, 0.1% acetic acid). Solvent B was raised to 60% over 0.25 min and to 70% by 6.75 min. Solvent B was raised to 95% by 7 min and lowered back to 40% by 8 minutes; total run time was 9 min (Bos et al. 2019).

[7] = tested on: mutant isoform of CK2a1; assay: Cell viability after expression of mutant CK2a1 isoform; conditions: versus GFP-expressing plasmid
[8] = tested on: MycN^AMP regulatory module (Master Regulators, TCM); assay: PLATE-Seq with VIPER analysis: reversion of the MycN^AMP master regulator module; type: cell-based, human; conditions: SK-N-Be2 cells, IC20, 24 hrs
Text: Reads were mapped against the human reference genome version Grch38 using the STAR aligner, and used the variance stabilizing transformation from the DESeq2 package for R to normalize each plate. Next, we corrected for batch effect due to having compounds replicates on separate plates. We used the function combat from the sva package for R to compute the batch-corrected normalized gene expression, and fitted a linear model for each compound against the set of DMSO controls on each plate (6 wells per plate per DMSO-treated cells). We used the limma package for R to fit the linear model and to compute p-values and moderated t-statistics for each gene. For each compound, we used a vector of these statistics to generate a gene expression profile of z-scores representing the compound effect as differential between post- and pre-treatment.
Each compound gene expression profile was analyzed using the VIPER algorithm (Alvarez et al. 2016) with TARGET and NRC NBL interactomes, reverse-engineered as described in (Rajbhandari et al. 2018), resulting in two protein activity profiles for each compound that were integrated using Stouffer's z-score method.

[9] = tested on: MYCN transcript; assay: RNASeq analysis of SK-N-Be2 cells, MYCN transcript; type: cell-based, human; conditions: 3 μM or 10 μM, 3 h and 6 h
Procedure: (§1) To uncover changes in gene expression that underpin responses to pomiferin and isopomiferin, RNASeq analysis of SK-N-Be2 cells was performed following treatment with the two active prenylated isoflavonoids as well as a null analog that served as a negative control. SK-N-Be2 cells were treated with either 3 μM or 10 μM of isopomiferin or pomiferin and sampled after 3 h and 6 h. […] By comparing the active to the null analogs, downstream analyses can focus on changes in gene expression associated with the MYCN signature.

[10] = tested on: TEAD4 transcript; assay: RNASeq analysis of SK-N-Be2 cells, TEAD4 transcript; type: cell-based, human; conditions: 3 μM or 10 μM, 3 h and 6 h
Procedure: as §1

[11] = tested on: MYCN MR signature; assay: RNASeq with VIPER analysis of the MYCN MR signature; type: cell-based, human; conditions: SK-N-Be2 cells; listed as dimethyl pomiferin
Procedure: as §1
Intriguingly, only six MRs were suppressed by pomiferin and isopomiferin, while being unaffected by the null analog dimethyl pomiferin (FIG. 20B).

[12] = Homo sapiens, SKNBE2, SK-N-Be2 cells

T1 sequence (P68400 whole entry): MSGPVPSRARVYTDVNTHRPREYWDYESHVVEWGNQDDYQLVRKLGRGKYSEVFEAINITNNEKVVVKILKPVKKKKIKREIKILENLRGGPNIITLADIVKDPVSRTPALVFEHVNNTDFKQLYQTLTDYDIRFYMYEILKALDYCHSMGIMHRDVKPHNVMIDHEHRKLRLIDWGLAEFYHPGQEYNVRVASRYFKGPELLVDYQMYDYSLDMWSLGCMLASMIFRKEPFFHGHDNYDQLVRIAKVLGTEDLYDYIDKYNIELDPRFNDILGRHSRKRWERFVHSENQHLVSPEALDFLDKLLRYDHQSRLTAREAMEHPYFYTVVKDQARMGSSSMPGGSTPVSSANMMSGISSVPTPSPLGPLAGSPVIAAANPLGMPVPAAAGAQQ

SMILES: CC(=O)Oc1ccc(-c2coc3c4c(c(CC=C(C)C)c(OC(C)=O)c3c2=O)OC(C)(C)C=C4)cc1OC(C)=O [pomiferin triacetate, 4-(5-acetoxy-8,8-dimethyl-6-(3-methylbut-2-en-1-yl)-4-oxo-4H,8H-pyrano[2,3-f]chromen-3-yl)-1,2-phenylene diacetate]
mTOR activity and general kinase inhibition [1]: can inhibit mTOR activity; also recorded: does not possess general kinase inhibition activity

SMILES: OC(c1cc(-c2ccc(C(F)(F)F)cc2)nc(C(F)(F)F)c1)C1CCCCN1 (stereo not shown) [NSC305798]
IC20 ([2]; SK-N-Be2 cells): 5 µM

SMILES: CO[C@H]1/C=C\C=C(/C)C(=O)NC2=CC(=O)C(N)=C(C[C@@H](C)C[C@H](OC)[C@H](O)[C@@H](C)/C=C(\C)[C@@H]1OC(N)=O)C2=O [NSC255109]
IC20 ([2]; SK-N-Be2 cells): 2.5 µM

SMILES: CCOc1ccc2ccc(=O)oc2c1 [7-ethoxycoumarin, reference compound]
metabolism by mouse liver microsomes [3]: metabolized across the duration of the assay

SMILES: CC(=O)[C@@]1(O)[C@H](C)C[C@H]2[C@@H]3C=C(C)C4=Cc5c(cnn5-c5ccccc5)C[C@]4(C)[C@H]3[C@@H](O)C[C@@]21C [NSC80997]
IC20 ([2]; SK-N-Be2 cells): 7.5 µM

SMILES: CN(C)c1ccc2nc3ccc(=[N+](C)C)cc-3sc2c1 [Methylene Blue]
IC20 [2, 12]: 2 µM | Histone H3 phosphorylation [4]: inhibit Histone H3 phosphorylation

SMILES: CN(C)c1ccc2nc3ccc(N)cc3[s+]c2c1.[Cl-] [Azure A]
IC20 ([2]; SK-N-Be2 cells): 1 µM | Histone H3 phosphorylation [4]: inhibit Histone H3 phosphorylation

SMILES: COc1c(C)c2c(c(O)c1C/C=C(\C)CCC(=O)O)C(=O)OC2 [Mycophenolic acid]
IC20 [2, 12]: 2.5 µM

cell permeability [6]: poor cell permeability | amount of compound detected in cell sample ([6]; human, 20 μM): 2.2 ng
SMILES: O=C(O)c1ccc2c(c1)nc(Nc1cccc(Cl)c1)c1ccncc12 [CX-4945]
CK2a1 kinase activity [5]: completely inhibited kinase activity of CK2a at all concentrations tested | resistance conferred by mutant CK2 isoform [7]: modest resistance

SMILES: COc1cccc2c1C(=O)c1c(O)c3c(c(O)c1C2=O)C[C@@](O)(C(=O)CO)C[C@@H]3O[C@H]1C[C@H](N)[C@H](O)[C@H](C)O1 [doxorubicin]
reversion of the MR regulatory module / TCM (VIPER of PLATE-Seq) [8]: induced spurious effects

SMILES: CC[C@@H](C(=O)O)[C@@H]1O[C@@H]([C@@H](C)[C@H](O)[C@H](C)C(=O)[C@H](CC)[C@H]2O[C@]3(C=C[C@@H](O)[C@]4(CC[C@@](C)([C@H]5CC[C@](O)(CC)[C@H](C)O5)O4)O3)[C@H](C)C[C@@H]2C)[C@@H](C)C[C@@H]1C [Narasin]
IC20 [2, 12]: 1 µM

SMILES: COc1cc([C@@H]2c3cc4c(cc3[C@H](O)[C@H]3COC(=O)[C@H]23)OCO4)cc(OC)c1OC [Podofilox]
IC20 [2, 12]: 1 µM

SMILES: c1ccc(-c2cccc(-c3ccccn3)n2)nc1 [NSC3905]
IC20 ([2]; SK-N-Be2 cells): 3 µM

SMILES: COc1cc(Nc2ncc3c(n2)-c2ccc(Cl)cc2C(c2c(F)cccc2OC)=NC3)ccc1C(=O)O [alisertib]
reversion of the MR regulatory module / TCM (VIPER of PLATE-Seq) [8]: does not suppress the regulatory signature in the same way as isopomiferin | Histone H3 phosphorylation [4]: inhibit Histone H3 phosphorylation

SMILES: c1ccc2c(c1)Nc1ccccc1S2 [phenothiazine]
activity in NBL cells (cell viability) ([2]; NBL cell lines, 48 hrs): inactive in NBL | reversion of the MR regulatory module / TCM (VIPER of PLATE-Seq) [8]: does not revert the signature

SMILES: Oc1ccc(Cl)c2cccnc12 [Cloxyquin]
IC20 [2, 12]: 5 µM

SMILES: COc1ccc(-c2coc3c4c(c(CC=C(C)C)c(O)c3c2=O)OC(C)(C)C=C4)cc1OC [pomiferin dimethyl ether, 3-(3,4-dimethoxyphenyl)-5-hydroxy-8,8-dimethyl-6-(3-methylbut-2-en-1-yl)-4H,8H-pyrano[2,3-f]chromen-4-one]
inhibition of SK-N-Be2 cell viability (rank or activity in words) ([2]; SK-N-Be2 cells, 72 hrs): inactivity at 20 μM | MYCN transcript abundance (RNASeq) [9]: did not affect either MYCN or TEAD4 | TEAD4 transcript (RNASeq) [10]: did not affect either MYCN or TEAD4 | effect on the MYCN MR signature (VIPER of RNASeq) [11]: does not revert the MYCN signature; also recorded: did not

SMILES: CC(C)C[C@@H](C=O)NC(=O)[C@H](CC(C)C)NC(=O)[C@H](CC(C)C)NC(=O)OCc1ccccc1 [MG132] (Cbz-Leu-Leu-Leu-aldehyde)
resistance conferred by mutant CK2 isoform [7]: no resistance was conferred by the plasmid

From US20220119399A1, “COMPOUNDS AND COMPOSITIONS THAT CAUSE MYCN AND/OR CMYC DEGRADATION AND METHODS OF USE THEREOF” (THE TRUSTEES OF COLUMBIA UNIVERSITY IN THE CITY OF NEW YORK, priority 2018, published 2022)
